Patent US20240246942A1, “KINASE INHIBITORS FOR THE TREATMENT OF NEURODEGENERATIVE DISEASES” (priority 2020, published 2024)

Assays:
Test in all cases: biochemical
[1] = target: T1, panel of 374 wild-type kinases (Homo sapiens, UniProt Q13464); conditions: read-out: % Enzyme Activity (relative to DMSO controls), kinase ROCK1
T1 construct: purchased Reaction Biology Corporation

[2] = target: T2, panel of 374 wild-type kinases (Homo sapiens, UniProt Q08345); conditions: read-out: % Enzyme Activity (relative to DMSO controls), DDR1
T2 construct: purchased Reaction Biology Corporation

[3] = target: T3, panel of 374 wild-type kinases (Homo sapiens, UniProt Q9UF33); conditions: EPHA6, read-out: % Enzyme Activity (relative to DMSO controls)
T3 construct: purchased Reaction Biology Corporation
T3 sequence (Q9UF33 23-1036): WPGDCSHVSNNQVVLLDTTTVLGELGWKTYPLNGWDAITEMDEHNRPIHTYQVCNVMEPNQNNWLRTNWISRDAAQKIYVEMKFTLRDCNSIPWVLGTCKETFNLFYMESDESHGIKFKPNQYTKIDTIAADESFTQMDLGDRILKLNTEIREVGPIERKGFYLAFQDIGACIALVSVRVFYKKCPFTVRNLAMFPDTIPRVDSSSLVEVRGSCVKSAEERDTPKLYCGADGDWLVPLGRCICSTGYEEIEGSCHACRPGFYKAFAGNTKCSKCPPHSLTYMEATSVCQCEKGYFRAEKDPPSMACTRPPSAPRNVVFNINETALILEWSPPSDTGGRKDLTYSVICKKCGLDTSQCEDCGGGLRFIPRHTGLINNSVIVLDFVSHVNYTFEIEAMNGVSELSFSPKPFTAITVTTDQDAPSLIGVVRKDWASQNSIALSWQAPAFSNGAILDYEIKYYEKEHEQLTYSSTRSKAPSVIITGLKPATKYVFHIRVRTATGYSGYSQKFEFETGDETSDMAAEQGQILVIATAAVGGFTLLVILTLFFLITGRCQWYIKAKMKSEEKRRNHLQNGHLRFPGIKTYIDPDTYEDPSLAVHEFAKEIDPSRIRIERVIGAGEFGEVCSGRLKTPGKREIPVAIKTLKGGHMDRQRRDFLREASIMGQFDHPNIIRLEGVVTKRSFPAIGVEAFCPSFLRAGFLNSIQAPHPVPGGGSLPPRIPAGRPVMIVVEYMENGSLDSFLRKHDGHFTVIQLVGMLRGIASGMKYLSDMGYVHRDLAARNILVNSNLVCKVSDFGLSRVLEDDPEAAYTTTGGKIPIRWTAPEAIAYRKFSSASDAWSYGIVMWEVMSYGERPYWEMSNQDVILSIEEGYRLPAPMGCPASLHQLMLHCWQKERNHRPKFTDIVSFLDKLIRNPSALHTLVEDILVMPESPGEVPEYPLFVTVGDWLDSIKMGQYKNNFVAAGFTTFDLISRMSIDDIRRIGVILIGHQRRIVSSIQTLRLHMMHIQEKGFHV

[4] = target: T4, panel of 374 wild-type kinases (Homo sapiens, UniProt P32298); conditions: read-out: % Enzyme Activity (relative to DMSO controls), GRK4
T4 construct: purchased Reaction Biology Corporation

[5] = target: T5, panel of 374 wild-type kinases (Homo sapiens, UniProt Q96GD4); conditions: read-out: % Enzyme Activity (relative to DMSO controls), Aurora B
T5 construct: purchased Reaction Biology Corporation

[6] = target: T6, panel of 374 wild-type kinases (Homo sapiens, UniProt Q8IW41); conditions: read-out: % Enzyme Activity (relative to DMSO controls), MAPKAPK5/PRAK
T6 construct: purchased Reaction Biology Corporation
T6 sequence (Q8IW41 1-473): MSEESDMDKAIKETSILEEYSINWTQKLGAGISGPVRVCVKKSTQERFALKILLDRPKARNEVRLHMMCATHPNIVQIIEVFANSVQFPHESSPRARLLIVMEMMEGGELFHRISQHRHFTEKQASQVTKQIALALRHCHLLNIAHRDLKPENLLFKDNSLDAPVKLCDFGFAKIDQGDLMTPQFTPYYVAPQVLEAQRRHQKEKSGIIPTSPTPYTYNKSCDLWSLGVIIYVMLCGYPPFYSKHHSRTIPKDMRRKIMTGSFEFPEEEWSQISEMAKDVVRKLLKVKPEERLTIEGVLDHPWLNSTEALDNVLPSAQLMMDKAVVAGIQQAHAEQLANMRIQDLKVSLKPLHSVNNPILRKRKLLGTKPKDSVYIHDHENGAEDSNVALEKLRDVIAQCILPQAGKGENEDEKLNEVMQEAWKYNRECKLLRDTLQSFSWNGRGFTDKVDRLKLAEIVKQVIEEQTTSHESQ

[7] = target: T7, panel of 374 wild-type kinases (Homo sapiens, UniProt Q92630); conditions: read-out: % Enzyme Activity (relative to DMSO controls), DYRK2
T7 construct: purchased Reaction Biology Corporation
T7 sequence (Q92630 1-601): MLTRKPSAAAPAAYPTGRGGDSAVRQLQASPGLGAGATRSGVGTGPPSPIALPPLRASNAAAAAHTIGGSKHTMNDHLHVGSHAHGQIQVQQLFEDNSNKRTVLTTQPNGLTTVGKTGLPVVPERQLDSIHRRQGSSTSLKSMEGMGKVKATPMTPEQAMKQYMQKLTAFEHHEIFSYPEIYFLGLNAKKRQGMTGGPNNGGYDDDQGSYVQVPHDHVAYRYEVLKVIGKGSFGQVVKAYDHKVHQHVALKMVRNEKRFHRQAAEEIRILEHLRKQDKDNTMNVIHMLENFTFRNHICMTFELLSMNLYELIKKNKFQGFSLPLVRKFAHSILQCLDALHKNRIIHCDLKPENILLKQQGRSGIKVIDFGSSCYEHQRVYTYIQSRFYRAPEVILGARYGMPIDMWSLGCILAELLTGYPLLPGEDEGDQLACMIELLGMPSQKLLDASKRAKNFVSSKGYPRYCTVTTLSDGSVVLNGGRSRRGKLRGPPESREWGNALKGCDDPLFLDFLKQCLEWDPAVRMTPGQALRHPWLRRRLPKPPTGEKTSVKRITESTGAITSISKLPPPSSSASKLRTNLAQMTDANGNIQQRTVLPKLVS

T5 sequence (Q96GD4 whole entry): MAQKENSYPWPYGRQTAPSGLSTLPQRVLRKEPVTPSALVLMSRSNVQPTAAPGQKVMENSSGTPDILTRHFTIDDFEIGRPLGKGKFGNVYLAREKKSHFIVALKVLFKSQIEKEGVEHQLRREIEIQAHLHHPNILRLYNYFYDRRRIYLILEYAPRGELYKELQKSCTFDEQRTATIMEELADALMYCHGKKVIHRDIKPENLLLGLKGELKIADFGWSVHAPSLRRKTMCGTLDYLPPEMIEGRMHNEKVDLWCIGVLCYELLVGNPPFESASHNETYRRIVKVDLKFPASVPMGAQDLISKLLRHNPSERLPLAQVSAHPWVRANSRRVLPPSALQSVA
T1 sequence (Q13464 whole entry): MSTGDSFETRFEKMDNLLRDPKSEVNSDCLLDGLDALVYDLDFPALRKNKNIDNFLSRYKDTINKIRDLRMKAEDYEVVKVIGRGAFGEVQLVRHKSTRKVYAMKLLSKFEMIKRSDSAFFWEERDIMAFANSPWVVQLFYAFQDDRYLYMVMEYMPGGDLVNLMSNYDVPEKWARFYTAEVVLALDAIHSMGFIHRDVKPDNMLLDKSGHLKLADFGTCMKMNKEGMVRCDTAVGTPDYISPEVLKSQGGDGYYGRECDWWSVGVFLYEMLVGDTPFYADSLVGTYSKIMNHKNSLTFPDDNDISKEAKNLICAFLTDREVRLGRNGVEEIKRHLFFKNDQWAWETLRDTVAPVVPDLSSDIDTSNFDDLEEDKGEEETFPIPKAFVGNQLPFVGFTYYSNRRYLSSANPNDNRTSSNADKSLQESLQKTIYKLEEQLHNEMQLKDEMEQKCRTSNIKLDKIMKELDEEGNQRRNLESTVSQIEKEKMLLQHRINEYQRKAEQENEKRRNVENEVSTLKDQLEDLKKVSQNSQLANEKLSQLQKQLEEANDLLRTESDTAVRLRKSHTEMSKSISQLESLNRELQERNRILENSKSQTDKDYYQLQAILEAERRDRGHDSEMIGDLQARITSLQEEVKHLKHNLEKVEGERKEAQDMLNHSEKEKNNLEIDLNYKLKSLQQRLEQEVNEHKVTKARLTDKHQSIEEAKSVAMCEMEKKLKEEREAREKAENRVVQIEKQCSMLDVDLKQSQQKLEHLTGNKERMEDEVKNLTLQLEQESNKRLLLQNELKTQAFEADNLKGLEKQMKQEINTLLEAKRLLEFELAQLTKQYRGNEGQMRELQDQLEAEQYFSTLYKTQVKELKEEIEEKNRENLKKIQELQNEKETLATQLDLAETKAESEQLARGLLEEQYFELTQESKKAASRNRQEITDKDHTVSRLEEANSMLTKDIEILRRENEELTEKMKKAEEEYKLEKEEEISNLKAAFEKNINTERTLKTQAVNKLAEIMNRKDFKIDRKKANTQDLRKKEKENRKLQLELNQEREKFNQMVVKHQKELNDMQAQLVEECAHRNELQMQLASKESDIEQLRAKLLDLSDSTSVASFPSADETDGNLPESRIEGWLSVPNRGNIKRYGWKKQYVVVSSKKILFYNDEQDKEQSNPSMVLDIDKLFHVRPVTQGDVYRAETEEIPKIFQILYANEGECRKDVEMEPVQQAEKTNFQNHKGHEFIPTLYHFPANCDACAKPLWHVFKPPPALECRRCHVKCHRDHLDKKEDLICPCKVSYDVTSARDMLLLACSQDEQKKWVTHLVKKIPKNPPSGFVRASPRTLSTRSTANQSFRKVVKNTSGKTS
T2 sequence (Q08345 19-913): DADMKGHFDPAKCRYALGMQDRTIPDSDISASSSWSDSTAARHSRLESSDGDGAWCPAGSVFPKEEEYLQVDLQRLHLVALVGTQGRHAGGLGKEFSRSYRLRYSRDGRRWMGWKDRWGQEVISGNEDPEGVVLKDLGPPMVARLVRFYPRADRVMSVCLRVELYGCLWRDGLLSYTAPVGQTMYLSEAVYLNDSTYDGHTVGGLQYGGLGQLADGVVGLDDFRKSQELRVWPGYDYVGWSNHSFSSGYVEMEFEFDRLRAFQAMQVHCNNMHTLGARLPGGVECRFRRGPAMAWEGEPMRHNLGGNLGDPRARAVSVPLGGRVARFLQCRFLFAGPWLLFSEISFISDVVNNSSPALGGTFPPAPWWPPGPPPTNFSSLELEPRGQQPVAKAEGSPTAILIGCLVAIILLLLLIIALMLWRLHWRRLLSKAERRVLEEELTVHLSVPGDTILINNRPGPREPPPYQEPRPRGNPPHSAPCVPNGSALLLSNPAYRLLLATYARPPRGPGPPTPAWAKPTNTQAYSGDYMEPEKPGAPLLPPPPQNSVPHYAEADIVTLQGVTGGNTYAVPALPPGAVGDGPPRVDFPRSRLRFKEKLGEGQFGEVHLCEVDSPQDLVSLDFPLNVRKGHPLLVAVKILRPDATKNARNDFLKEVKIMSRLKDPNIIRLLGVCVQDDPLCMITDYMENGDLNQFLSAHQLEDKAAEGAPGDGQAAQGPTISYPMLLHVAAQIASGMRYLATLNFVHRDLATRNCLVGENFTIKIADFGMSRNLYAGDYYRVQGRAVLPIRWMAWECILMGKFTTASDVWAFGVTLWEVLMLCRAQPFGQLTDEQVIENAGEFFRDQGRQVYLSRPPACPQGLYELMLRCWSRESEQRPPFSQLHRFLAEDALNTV
T4 sequence (P32298 whole entry): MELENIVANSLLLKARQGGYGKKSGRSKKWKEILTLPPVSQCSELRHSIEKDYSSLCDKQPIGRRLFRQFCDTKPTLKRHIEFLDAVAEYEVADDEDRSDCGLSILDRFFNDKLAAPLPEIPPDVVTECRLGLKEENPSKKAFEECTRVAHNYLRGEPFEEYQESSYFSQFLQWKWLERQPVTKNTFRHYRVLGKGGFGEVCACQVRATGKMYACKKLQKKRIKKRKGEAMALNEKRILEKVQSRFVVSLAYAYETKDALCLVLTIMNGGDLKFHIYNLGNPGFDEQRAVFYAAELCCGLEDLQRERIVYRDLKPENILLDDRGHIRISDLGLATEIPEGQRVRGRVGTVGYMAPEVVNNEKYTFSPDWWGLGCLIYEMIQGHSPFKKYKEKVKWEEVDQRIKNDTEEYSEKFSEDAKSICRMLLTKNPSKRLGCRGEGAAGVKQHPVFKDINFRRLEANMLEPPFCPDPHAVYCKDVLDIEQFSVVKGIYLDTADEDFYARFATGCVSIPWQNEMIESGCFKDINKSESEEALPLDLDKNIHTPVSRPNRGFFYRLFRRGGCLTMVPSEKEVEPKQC

| Structure (SMILES) | remaining activity at 5 µM [1] | remaining activity at 5 µM [2] | remaining activity at 5 µM [3] | remaining activity at 5 µM [4] | remaining activity at 5 µM [5] | remaining activity at 5 µM [6] | remaining activity at 5 µM [7] | remaining activity at 10 µM ([1]; 10 uM) | remaining activity at 10 µM ([2]; 10 uM) | remaining activity at 10 µM ([3]; 10 uM) | remaining activity at 10 µM ([4]; 10 uM) | remaining activity at 10 µM ([5]; 10 uM) | remaining activity at 10 µM ([6]; 10 uM) | remaining activity at 10 µM ([7]; 10 uM) |
| --- | --- | --- | --- | --- | --- | --- | --- | --- | --- | --- | --- | --- | --- | --- |
| O=C(Nc1cnn(-c2csc(C(=O)NC3COC3)c2)c1)Nc1ccccc1Cl [Compound 17, 4-(4-(3-(2-chlorophenyl)ureido)-1H-pyrazol-1-yl)-N-(oxetan-3-yl)thiophene-2-carboxamide] | 109% | 98.4% | 99.5% | 97% | 93% | 92.8% | 88.2% | – | – | – | – | – | – | – |
| Cc1sc(C(=O)NC2COC2)cc1-n1cc(NC(=O)Nc2c(F)cccc2Cl)cn1 [Compound 27, 4-(4-(3-(2-chloro-6-fluorophenyl)ureido)-1H-pyrazol-1-yl)-5-methyl-N-(oxetan-3-yl)thiophene-2-carboxamide] | – | – | – | – | – | – | – | 96.8% | 83.7% | 80.2% | 113% | 96.4% | 96.5% | 96.3% |
| O=C(Nc1cnn(-c2csc(C(=O)NC3COC3)c2)c1)Nc1c(F)cccc1Cl [Compound 25, 4-(4-(3-(2-chloro-6-fluorophenyl)ureido)-1H-pyrazol-1-yl)-N-(oxetan-3-yl)thiophene-2-carboxamide] | 78.2% | 88.9% | 95.7% | 93.6% | 69.8% | 99.7% | 93.6% | – | – | – | – | – | – | – |
